Laboratory results published in ChEMBL document CHEMBL3988442, “University of Dundee, Small-Polar-MMV Screening Library” (2021).

Experiments:
[1] = microbe, parasite or virus in culture; details: Mycobacterium tuberculosis, 96 h, read-out: pIC50 (converted)
[2] = microbe, parasite or virus in culture; details: Mycobacterium tuberculosis, 72 h, read-out: pIC50 (converted)

| Structure (SMILES) | IC50 [1] | IC50 [2] |
| --- | --- | --- |
| O=C(CCSc1ccc(F)cc1)N1CCN(c2cnccn2)CC1 | > 50.1 µM | > 50.1 µM |
| Cc1c(C(=O)NC[C@H]2CCCN2)n(C)c2ccccc12 | > 501 µM | > 501 µM |
| Cc1nc(N2CCCC2)nc2c1CCN(Cc1ccoc1)CC2 | 14.7 µM | 22.8 µM |
| O=C(c1cc(COc2ccc3c(c2)OCO3)[nH]n1)N1CCCCO1 | 17.8 µM | > 50.1 µM |
| c1ccc(CN2CCCN(c3ccccn3)CC2)nc1 | 236 µM | 196 µM |
| Cn1cccc1C(=O)N1CCN2C[C@H](Oc3cccnc3)C[C@H]2C1 | > 50.1 µM | > 50.1 µM |
| COC(=O)c1ccc(N2CCC(C(O)c3ccccc3)CC2)nn1 (stereo not drawn) | 20.5 µM | 24.3 µM |
| CCc1cccc2c1N(C(=O)[C@@H](N)CC)CC2 | > 501 µM | 244 µM |
| N#Cc1ccc(N2CCC3(CC2)COCCN3Cc2cccnc2)cc1 | > 50.1 µM | > 50.1 µM |
| CN(C)S(=O)(=O)N(CCO)Cc1ccc(Cl)c(Cl)c1 | 308 µM | 216 µM |
| CCNC1=NN=C(c2ccc3c(c2)OCCCO3)CS1 | > 501 µM | 274 µM |
| COCCCNC(=O)C1=Cc2ccccc2OC1 | 115 µM | 119 µM |
| CN(C)C(=O)c1csc(N2CCCCC2)n1 | 58.7 µM | 46.6 µM |
| CC1c2ccsc2CCN1CCC(=O)NC(N)=O (stereo not drawn) | 128 µM | 78.1 µM |
| COc1ccccc1CC(=O)Nc1ncc(C(N)=O)s1 | > 501 µM | > 501 µM |
| N#CCCCn1nnc(-c2ccccc2)n1 | 178 µM | 191 µM |
| O=C(COc1ccc(F)cc1)Nc1ccon1 | > 501 µM | 186 µM |
| Cc1nc(COc2ccc(C(=O)OCC#N)cc2)no1 | > 501 µM | > 501 µM |
| CC(C)Sc1nc(-c2ccccn2)no1 | 312 µM | 320 µM |
| CC(C)c1ccc(S(=O)(=O)C(C)C(N)=O)cc1 (stereo not drawn) | 190 µM | 284 µM |
| Cc1ccc(CNC(=O)c2ccc(F)cc2)o1 | 47.3 µM | 19.6 µM |
| CC(CN)CNC(=O)c1ccc(C(F)(F)F)cc1 (stereo not drawn) | > 501 µM | > 501 µM |
| COc1ccc(C(=O)Nc2nonc2NC(C)=O)cc1 | 96.4 µM | > 501 µM |
| Cc1ccc(F)c(S(=O)(=O)N2C[C@H](C3CC3)[C@@H](N)C2)c1 | > 501 µM | > 501 µM |
| O=C(CCC(=O)N1CCC(Oc2ncccc2Br)CC1)c1ccccc1 | 45.4 µM | 34.6 µM |
| CC1CCCN(c2nc(C(=O)N3CCOCC3)cs2)C1 (stereo not drawn) | 146 µM | 133 µM |

| Structure (SMILES) | IC50 [1] | IC50 [2] |
| --- | --- | --- |
| O=C(c1cscn1)N1CCN(c2ccc(Cl)cn2)CC1 | 249 µM | 116 µM |
| O=C(NCCn1cccc1)c1[nH]nc2c1CCCC2 | > 501 µM | 248 µM |
| NCCCc1ccccn1 | > 501 µM | > 501 µM |
| O=c1c2cc3c(cc2nnn1Cc1ccccc1Cl)OCCO3 | > 50.1 µM | > 50.1 µM |
| CN(C)c1nc(-c2ccc3c(c2)CCC(=O)N3)cs1 | 201 µM | 120 µM |
| COc1cccc(-c2ncc(CN)s2)c1 | 282 µM | 161 µM |
| CCCOc1cc(CNC(=O)c2csnc2C)ccn1 | 215 µM | 350 µM |
| Cc1cc(C(=O)NCc2cccc(F)c2)no1 | 308 µM | 52.9 µM |
| C[C@@]1(O)CCN(C(=O)CN)C[C@@H]1Cc1ccccc1 | 174 µM | 219 µM |
| CCOC1COC2(CCN(Cc3ccc4c(c3)OCO4)CC2)C1 (stereo not drawn) | > 50.1 µM | > 50.1 µM |
| CS(=O)(=O)NCC1CCCN(c2ncc(Cl)cc2F)C1 (stereo not drawn) | > 501 µM | 159 µM |
| O=c1[nH]cnc2cccc(O)c12 | > 501 µM | > 501 µM |
| CC(O)CN1C(=O)C=CC1=O (stereo not drawn) | 286 µM | 135 µM |
| CSCCN(C)Cc1cn(-c2ccccc2)nn1 | > 501 µM | > 501 µM |
| Cc1nn(CCN(C)c2ccccc2)c(N)c1C#N | > 501 µM | 265 µM |
| CC1=C[C@@H](CN2CCCC2)[C@H](C(C)C)C[C@H]1Cc1nnc(C)o1 | > 50.1 µM | > 50.1 µM |
| FC(F)(F)c1ccccc1CN1CCOC[C@H](Oc2cccnc2)C1 | 18.7 µM | 48 µM |
| NCc1noc2c1CCCC2 | > 501 µM | > 501 µM |
| CN1CCCN(C(=O)c2ccco2)c2ccccc21 | 191 µM | 119 µM |
| CCn1c(C(=O)N2CCOCC2C)cc2ccccc21 (stereo not drawn) | 303 µM | 191 µM |
| CCN(Cc1ccc(Cl)c(Cl)c1)C(=O)CCS(C)(=O)=O | > 501 µM | 129 µM |
| C=C(C)CSc1nnc(CCNC(=O)OC(C)(C)C)o1 | 5.84 µM | 40.4 µM |
| CC(C)(O)Cn1nnc(-c2cccs2)n1 | > 501 µM | > 501 µM |
| CC(C)c1cccc(NC(=O)CN2CCC(O)CC2)c1 | 359 µM | 116 µM |
| NC(=O)CSc1nc(-c2ccc(Br)cc2)c[nH]1 | 260 µM | 160 µM |
| CC(C)c1cccc(S(=O)(=O)N2CCCC2CN)c1 (stereo not drawn) | > 501 µM | 399 µM |

| Structure (SMILES) | IC50 [1] | IC50 [2] |
| --- | --- | --- |
| Cc1cc(NC(=O)CN(C)Cc2ccccc2)no1 | 243 µM | 266 µM |
| CCNC(=O)c1cc2ccc(OC)cc2[nH]1 | > 501 µM | 283 µM |
| Cc1cc(CN(C)Cc2csc(-c3ccc(C(C)C)cc3)n2)no1 | 37.9 µM | > 50.1 µM |
| COc1cn(-c2ccccc2)nc1C(=O)NCC(C)C | 294 µM | 282 µM |
| COc1cc(C(=O)NCCc2ccc(Cl)cc2)on1 | > 50.1 µM | 4.56 µM |
| CSCc1ccc(C(=O)NCCCNc2ccc(C(F)(F)F)cn2)cc1 | > 50.1 µM | > 50.1 µM |
| CC1CN(CCCOc2ccc(C#N)cc2)CCN1 (stereo not drawn) | 390 µM | > 501 µM |
| O=C(CCN1CCCCC1)c1ccc2c(c1)OCO2 | > 501 µM | > 501 µM |
| Cc1ccccc1-c1nnn(CC(O)CC(F)(F)F)n1 (stereo not drawn) | 126 µM | 102 µM |
| CC(=O)N1CCC(CN(C)Cc2ccc(Br)o2)C1 (stereo not drawn) | > 501 µM | > 501 µM |
| COc1ccc(COCC(=O)N2CCCC(n3cncn3)C2)cc1 (stereo not drawn) | > 50.1 µM | > 50.1 µM |
| Cc1[nH]ncc1C(=O)NCCCSCC(C)C | > 501 µM | 102 µM |
| CCCc1nnc(N2CCC3(CC2)OCC(C)O3)s1 (stereo not drawn) | 45.5 µM | 34.3 µM |
| CC(C)N(Cc1ccccn1)C(=O)c1cc(Cl)c[nH]1 | > 501 µM | > 501 µM |
| COc1cccc(NC(CN)c2ccccc2)c1 (stereo not drawn) | > 501 µM | 187 µM |
| Clc1ccc(-c2noc(CN3CCCNCC3)n2)cc1 | 216 µM | 213 µM |
| N#CCCn1ncc2c(NCc3cccs3)ncnc21 | > 501 µM | 399 µM |
| O=C(c1cc(C2CC2)on1)N1CCC(Oc2ncccc2Br)CC1 | 24.2 µM | > 50.1 µM |
| O=C(c1cnsn1)N1CC=C(c2ccccc2)CC1 | 237 µM | 35.1 µM |
| COc1cc(C(=O)NCC2CCC2)cc2c1OCCO2 | 321 µM | 245 µM |
| CNC(=O)NC(=O)CCN1CCc2ccccc2C1 | 201 µM | 196 µM |
| CC1=CC(=O)N(Cc2ccccc2)C1=O | 81.5 µM | 49.8 µM |
| O[C@@H]1CNC[C@H]1n1ccnn1 | 289 µM | 286 µM |
| NCC(CO)Cc1ccc(F)c(Br)c1 (stereo not drawn) | 249 µM | 375 µM |
| CC(c1nc(-c2ccccn2)no1)N1CCSCC1 (stereo not drawn) | 115 µM | 86.8 µM |
| O=C(NCCCOC(F)F)NCc1ccc(Br)o1 | 125 µM | 135 µM |

| Structure (SMILES) | IC50 [1] | IC50 [2] |
| --- | --- | --- |
| C=Cc1ccc(C(=O)N2CCCC(Nc3ccc(F)c(F)c3)C2)cc1 (stereo not drawn) | 40.8 µM | > 50.1 µM |
| OCCCNc1cccc(Cl)c1-n1cccn1 | > 501 µM | 183 µM |
| CN1Cc2cc(-c3csc(N)n3)ccc2NC1=O | > 501 µM | > 501 µM |
| CC(N)c1noc(-c2ccc(Cl)cc2)n1 (stereo not drawn) | 375 µM | 261 µM |
| O=C(c1cc(C2CC2)[nH]n1)N1CCN(Cc2ccc3c(c2)OCO3)CC1 | 10.3 µM | 9.81 µM |
| Cc1cccnc1CN1CCOC(Cc2cccc3ccccc23)C1 (stereo not drawn) | > 50.1 µM | > 50.1 µM |
| C1CC(COCCc2noc(C3CNC3)n2)CCO1 | 279 µM | 337 µM |
| Cc1ccc(C(=O)Nc2cnn(C)c2)cn1 | > 501 µM | > 501 µM |
| CCCC(=O)N(CCCN1CCOCC1)c1nc2c(C)ccc(Cl)c2s1 | 19.2 µM | 12.8 µM |
| Cc1ccc2c(c1)OC(C)CN2C(=O)c1ccccn1 (stereo not drawn) | > 501 µM | > 501 µM |
| COCCN1CCN(CCS(=O)(=O)C(F)(F)F)CC1 | 293 µM | 131 µM |
| CCc1ccccc1OC1CN(C(=O)c2ccsc2)C1 | > 50.1 µM | 8.19 µM |
| CCc1nc(C)c(C(=O)NCC2CCS(=O)(=O)CC2)o1 | > 501 µM | > 501 µM |
| CS(=O)(=O)NC[C@H]1Cn2c(-c3ccc(Cl)cc3)cnc2CO1 | > 50.1 µM | > 50.1 µM |
| O=C(CN1CCNCC1)c1ccco1 | 186 µM | 239 µM |
| Cc1cnc(C(=O)NCCSCc2ccco2)cn1 | > 501 µM | > 501 µM |
| O=C(c1ncoc1C1CC1)N1CCCN(CCCc2ccccc2)CC1 | > 50.1 µM | > 50.1 µM |
| COc1cccc(-c2ccc(CNS(N)(=O)=O)cc2)c1 | 283 µM | 159 µM |
| O=C(NCC1CCCO1)c1cc(-c2cccs2)on1 (stereo not drawn) | 54.8 µM | 38.3 µM |
| Cc1cc(Cl)ccc1C(=O)C1CCCN(Cc2cnc(N(C)C)s2)C1 (stereo not drawn) | 40.8 µM | 45.7 µM |
| COC(=O)[C@@H]1C[C@@H](O)CN1Cc1ncc(C(C)(C)C)o1 | > 501 µM | > 501 µM |
| O=c1n(Cc2ccccc2)nnn1-c1cccs1 | 12.7 µM | 7.64 µM |
| Cc1cccc(C[S+]([O-])CC(=O)NCC2CC2)c1 (stereo not drawn) | > 501 µM | > 501 µM |
| NS(=O)(=O)c1ccc(NC(=O)Cn2ccnc2)cc1 | > 501 µM | > 501 µM |
| NCCc1cnn(-c2ccccc2)c1 | 250 µM | 230 µM |
| COc1cccc(S(=O)(=O)CCN(C)CCO)c1 | 352 µM | 109 µM |
